EC50 data for 17 compounds are collected here from patent US12486269B2 (Aconcagua Bio, Inc., priority 2024, dated 2025).

For assay [1], the target named is T1, human calcitonin receptor (CTR) (Homo sapiens, UniProt P30988).
T1 construct: expressed in transfected cells; host or cells: COS-7 (COS7-human CTR Clone #2)
T1 sequence (P30988 25-474): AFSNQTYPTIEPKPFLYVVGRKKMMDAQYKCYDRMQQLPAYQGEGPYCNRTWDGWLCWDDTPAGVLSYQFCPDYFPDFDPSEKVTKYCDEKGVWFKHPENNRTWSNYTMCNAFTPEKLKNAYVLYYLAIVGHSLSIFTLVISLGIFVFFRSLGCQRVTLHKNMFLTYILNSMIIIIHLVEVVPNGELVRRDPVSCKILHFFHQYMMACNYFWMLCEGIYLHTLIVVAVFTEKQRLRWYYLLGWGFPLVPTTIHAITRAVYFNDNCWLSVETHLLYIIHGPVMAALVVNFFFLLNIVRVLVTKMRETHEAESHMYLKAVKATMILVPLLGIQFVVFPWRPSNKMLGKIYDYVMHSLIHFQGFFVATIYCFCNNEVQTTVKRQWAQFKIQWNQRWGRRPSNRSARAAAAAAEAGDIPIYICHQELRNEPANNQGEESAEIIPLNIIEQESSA
Briefly: Calcitonin Receptor (CTR) cAMP Assay. It counts as cell-based. The conditions noted are these: COS7-human CTR Clone #2 stable cell line, cAMP dynamic 2 kit, 30 min; read-out: Calcitonin Receptor cAMP Stimulation Activity: EC50. A digest of the protocol: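 COS-7 cells stably expressing human CTR (2000 cells/well) were incubated 30 min at 37 °C with 4-fold serially diluted compound in HBSS/20 mM HEPES/0.5 mM IBMX/0.1% casein. cAMP was detected by HTRF (665/615 nm) after 1 h at RT. % activity was normalised to vehicle and positive controls.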

Assay [2] concerns the target T2, COS-7/AMY3 (human calcitonin receptor (CTR) and RAMP3) (Homo sapiens, UniProt O60896+P30988).
T2 construct: expressed in transfected cells; host or cells: COS-7
Briefly: Amylin Receptor cAMP Assay II. The assay is classed as cell-based. The conditions noted are these: values marked **: Amylin Receptor cAMP Assay II; COS-7/AMY3 cells, cAMP dynamic 2 kit, 30 min; read-out: Amylin Receptor cAMP Stimulation Activity: EC50. A digest of the protocol:
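COS-7 cells stably co-expressing human CTR and RAMP3 (AMY3), 2000 cells/well in HBSS with 20 mM HEPES, 0.5 mM IBMX, 0.1% casein, stimulated with compound for 30 min at 37 °C. cAMP measured by HTRF (665/615 nm), activity normalized between vehicle and maximal control.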

Each structure is given as a SMILES string.

T2 sequence (O60896 24-148, one chain of several): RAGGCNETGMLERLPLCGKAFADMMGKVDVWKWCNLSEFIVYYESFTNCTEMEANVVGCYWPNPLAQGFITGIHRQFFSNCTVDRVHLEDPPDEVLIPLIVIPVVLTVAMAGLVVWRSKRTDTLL

Broadly, the EC50 is the concentration at which the effect is half-maximal. With `O=C1c2c(nc(CCc3ccc(F)cc3)c(-c3n[nH]c(=O)o3)c2-c2cc3ccnc(N[C@@H]4CCc5ccccc54)c3s2)[C@@H]2CCCN12` [Compound 226, 5-((S)-4-(7-(((R)-2,3-dihydro-1H-inden-1-yl)amino)thieno[2,3-c]pyridin-2-yl)-2-(4-fluorophenethyl)-5-oxo-7,8,9,9a-tetrahydro-5H-pyrido[2,3-a]pyrrolizin-3-yl)-1,3,4-oxadiazol-2(3H)-one], the EC50 in assay [1] was found to be 1.08 nM; in assay [2], 14.2 nM.
Turning to `COc1cccc2c1CC[C@H]2N1Cc2cc(-c3c4c(nc(CCc5ccc(F)cc5)c3-c3n[nH]c(=O)o3)C35CC(CN3C4=O)C5)ccc2C1=O` [Compound 240, (R)-5-(2-(4-fluorophenethyl)-4-(2-(4-methoxy-2,3-dihydro-1H-inden-1-yl)-1-oxoisoindolin-5-yl)-5-oxo-8,9-dihydro-5H,7H-8,9a-methanopyrido[2,3-a]pyrrolizin-3-yl)-1,3,4-oxadiazol-2(3H)-one], the EC50 amounted to 8.9 nM in assay [1] and 182 nM in assay [2].
For `COc1cccc2c1CC(F)(F)[C@H]2Nc1nccc2cc(-c3c4c(nc(CCc5ccc(F)cc5)c3-c3n[nH]c(=O)o3)[C@@H]3CCCN3C4=O)sc12` [Compound 194, 5-((S)-4-(7-(((S)-2,2-difluoro-4-methoxy-2,3-dihydro-1H-inden-1-yl)amino)thieno[2,3-c]pyridin-2-yl)-2-(4-fluorophenethyl)-5-oxo-7,8,9,9a-tetrahydro-5H-pyrido[2,3-a]pyrrolizin-3-yl)-1,3,4-oxadiazol-2(3H)-one] the same measures were 0.229 nM and 1.96 nM.
For the compound `COc1c(F)ccc2c1CC[C@H]2Nc1nccc2cc(-c3c4c(nc(CCc5cccc(F)c5)c3-c3n[nH]c(=O)o3)C35CC(CN3C4=O)C5)sc12` [Compound 275, (R)-5-(4-(7-((5-fluoro-4-methoxy-2,3-dihydro-1H-inden-1-yl)amino)thieno[2,3-c]pyridin-2-yl)-2-(3-fluorophenethyl)-5-oxo-8,9-dihydro-5H,7H-8,9a-methanopyrido[2,3-a]pyrrolizin-3-yl)-1,3,4-oxadiazol-2(3H)-one], the values for the EC50 in assay [1] and in assay [2] were 0.0262 nM and 0.394 nM, respectively.
Consider `O=C1c2c(nc(CCc3ccc(F)cc3)c(-c3noc(=O)[nH]3)c2-c2cc3ccnc(NCc4ccc5c(c4)CCC5)c3s2)[C@@H]2CCCN12` [Compound 148], for which the EC50 came out at 18.7 nM in assay [1] and 288 nM in assay [2].
For `O=C1c2c(nc(CCc3ccc(F)cc3)c(-c3noc(=O)[nH]3)c2-c2cc3ccnc(N4CCCC4c4ccc(F)c(F)c4)c3s2)[C@@H]2CCCN12` (stereo partly shown) [Compound 117] the same measures were 53.5 nM and 113 nM.
With `COc1c(F)ccc2c1C[C@H](F)[C@H]2Nc1nccc2cc(-c3c4c(nc(CCc5ccc(F)cc5)c3-c3n[nH]c(=O)o3)[C@@H]3CCCN3C4=O)sc12` [Compound 261, 5-((S)-4-(7-(((1S,2S)-2,5-difluoro-4-methoxy-2,3-dihydro-1H-inden-1-yl)amino)thieno[2,3-c]pyridin-2-yl)-2-(4-fluorophenethyl)-5-oxo-7,8,9,9a-tetrahydro-5H-pyrido[2,3-a]pyrrolizin-3-yl)-1,3,4-oxadiazol-2(3H)-one], the values for the EC50 in assay [1] and in assay [2] were 0.807 nM and 6.35 nM, respectively.
Regarding `COc1c(F)cc(F)c2c1CC[C@H]2Nc1nccc2cc(-c3c4c(nc(CCc5ccc(F)cc5)c3-c3n[nH]c(=O)o3)C35CC(CN3C4=O)C5)sc12` [Compound 288, (R)-5-(4-(7-((5,7-difluoro-4-methoxy-2,3-dihydro-1H-inden-1-yl)amino)thieno[2,3-c]pyridin-2-yl)-2-(4-fluorophenethyl)-5-oxo-8,9-dihydro-5H,7H-8,9a-methanopyrido[2,3-a]pyrrolizin-3-yl)-1,3,4-oxadiazol-2(3H)-one], the values for the EC50 in assay [1] and in assay [2] were 0.0436 nM and 1.59 nM, respectively.
Take `O=C1c2c(nc(CCc3ccc(F)cc3)c(-c3noc(=O)[nH]3)c2-c2cc3ccnc(OCc4ccc(F)c(F)c4)c3s2)[C@@H]2CCCN12` [Compound 133, (S)-3-(4-(7-((3,4-difluorobenzyl)oxy)thieno[2,3-c]pyridin-2-yl)-2-(4-fluorophenethyl)-5-oxo-7,8,9,9a-tetrahydro-5H-pyrido[2,3-a]pyrrolizin-3-yl)-1,2,4-oxadiazol-5(4H)-one]: the 50% effective concentration (EC50) in assay [1] was found to be 4.42 nM; in assay [2] it was 90.7 nM.
For `COc1cccc2c1CC[C@H]2Nc1nccc2cc(-c3c4c(nc(C[C@@H]5COc6cc(F)ccc65)c3-c3n[nH]c(=O)o3)[C@@H]3CCCN3C4=O)sc12` [Compound 218, 5-((S)-2-(((S)-6-fluoro-2,3-dihydrobenzofuran-3-yl)methyl)-4-(7-(((R)-4-methoxy-2,3-dihydro-1H-inden-1-yl)amino)thieno[2,3-c]pyridin-2-yl)-5-oxo-7,8,9,9a-tetrahydro-5H-pyrido[2,3-a]pyrrolizin-3-yl)-1,3,4-oxadiazol-2(3H)-one] the same measures were 11.5 nM and 89.3 nM.
For `O=C1c2c(nc(CCc3ccc(F)cc3)c(-c3n[nH]c(=O)o3)c2-c2cnc3c(ccn3Cc3ccc(F)cn3)c2)[C@@H]2CCCN12` [Compound 177, (S)-5-(2-(4-fluorophenethyl)-4-(1-((5-fluoropyridin-2-yl)methyl)-1H-pyrrolo[2,3-b]pyridin-5-yl)-5-oxo-7,8,9,9a-tetrahydro-5H-pyrido[2,3-a]pyrrolizin-3-yl)-1,3,4-oxadiazol-2(3H)-one] the same measures were 39.4 nM and 1810 nM.
For `COc1cccc2c1CC[C@H]2Nc1nccc2cc(-c3c4c(nc(CCc5ccc(F)cc5)c3-c3n[nH]c(=O)o3)[C@@H]3COCCN3C4=O)sc12` [Compound 235, (R)-2-(4-fluorophenethyl)-4-(7-(((R)-4-methoxy-2,3-dihydro-1H-inden-1-yl)amino)thieno[2,3-c]pyridin-2-yl)-3-(5-oxo-4,5-dihydro-1,3,4-oxadiazol-2-yl)-7,8,10,10a-tetrahydro-5H-pyrido[2′,3′:3,4]pyrrolo[2,1-c][1,4]oxazin-5-one] the same measures were 0.236 nM and 18.1 nM.
Regarding `O=C1c2c(nc(CCc3ccc(F)cc3)c(-c3n[nH]c(=O)o3)c2-c2cc3ccnc(N[C@@H]4CCc5cc(Cl)ccc54)c3s2)C23CC(CN12)C3` [Compound 273, (R)-5-(4-(7-((5-chloro-2,3-dihydro-1H-inden-1-yl)amino)thieno[2,3-c]pyridin-2-yl)-2-(4-fluorophenethyl)-5-oxo-8,9-dihydro-5H,7H-8,9a-methanopyrido[2,3-a]pyrrolizin-3-yl)-1,3,4-oxadiazol-2(3H)-one], the EC50 in assay [1] was 0.165 nM; in assay [2] it was 1.79 nM.
For `N#Cc1ccc(Cn2c(=O)oc3cc(-c4c(-c5n[nH]c(=O)o5)c(CCc5ccc(F)cc5)nc5c4S(=O)(=O)N4CCC[C@@H]54)ccc32)nc1` [Compound 213, (S)-6-((6-(2-(4-fluorophenethyl)-5,5-dioxido-3-(5-oxo-4,5-dihydro-1,3,4-oxadiazol-2-yl)-7,8,9,9a-tetrahydropyrrolo[1′,2′:2,3]isothiazolo[4,5-b]pyridin-4-yl)-2-oxobenzo[d]oxazol-3(2H)-yl)methyl)nicotinonitrile] the same measures were 0.786 nM and 53.1 nM.
With `C[C@@H](Nc1nccc2cc(-c3c4c(nc(CCc5ccc(F)cc5)c3-c3noc(=O)[nH]3)[C@@H]3CCCN3C4=O)sc12)c1ccc(F)c(F)c1` [Compound 140], the figures for the EC50 in assay [1] and in assay [2] were 2.13 nM and 19.1 nM, respectively.
With `O=C(NCc1ccc(F)c(F)c1)c1ccc(-c2c3c(nc(CCc4ccc(F)cc4)c2-c2cc(=O)[nH]o2)[C@@H]2CCCN2C3=O)s1` [Compound 103, (S)—N-(3,4-difluorobenzyl)-5-(2-(4-fluorophenethyl)-5-oxo-3-(3-oxo-2,3-dihydroisoxazol-5-yl)-7,8,9,9a-tetrahydro-5H-pyrido[2,3-a]pyrrolizin-4-yl)thiophene-2-carboxamide], the results for the EC50 in assay [1] and in assay [2] were 21.5 nM and 273 nM, respectively.
On to `CC(C)C1CS(=O)(=O)c2c1nc(CCC1CCOCC1)c(-c1cc(=O)[nH]o1)c2-c1ccc2c(ccn2Cc2ccc(C#N)c(F)c2)c1` (stereo not shown) [Compound 199, 2-fluoro-4-[[5-[3-isopropyl-1,1-dioxo-6-(3-oxoisoxazol-5-yl)-5-(2-tetrahydropyran-4-ylethyl)-2,3-dihydrothieno[3,2-b]pyridin-7-yl]indol-1-yl]methyl]benzonitrile], for which the EC50 stood at 3.7 nM in assay [1] and 301 nM in assay [2].
